US20230192683A1, “FUSED RING COMPOUNDS, PREPARATION METHOD THEREFOR, PHARMACEUTICAL COMPOSITIONS AND USE THEREOF” (priority 2020, published 2023)
Marks after values point to notes of the source that are not given here.

Assays:
human SSTR4 [1] = biological target: T1, human SSTR4 (Homo sapiens, UniProt P31391); assay: cell-based human SSTR4 cAMP assay (agonist activity); details: SSTR4, EC50 (nM), Flp-In-CHO-SSTR4 stable pool, Forskolin-stimulated cAMP
T1 construct: expressed in transfected cells
T1 sequence (P31391 whole entry): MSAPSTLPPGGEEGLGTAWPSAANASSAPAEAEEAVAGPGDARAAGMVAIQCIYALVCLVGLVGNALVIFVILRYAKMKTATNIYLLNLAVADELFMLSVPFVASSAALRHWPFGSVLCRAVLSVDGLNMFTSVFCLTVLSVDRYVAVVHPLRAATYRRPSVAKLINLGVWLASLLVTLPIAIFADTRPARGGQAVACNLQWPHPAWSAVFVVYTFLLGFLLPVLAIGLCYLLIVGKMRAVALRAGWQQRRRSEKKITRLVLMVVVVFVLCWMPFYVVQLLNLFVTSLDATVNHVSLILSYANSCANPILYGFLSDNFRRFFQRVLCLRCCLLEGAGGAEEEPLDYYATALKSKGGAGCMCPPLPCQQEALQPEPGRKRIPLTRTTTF
Experimental: Purpose of test: A cell-based human SSTR4 cAMP assay was used to determine the agonistic effect of the test compound on an SSTR 4 receptor.
Cell culture and reagent preparation: cell line: Flp-In-CHO-SSTR4 stable pool; complete medium: Ham’s F-12 K + 10% FBS + 1 × penicillin-streptomycin (PS) + 600 µg/ml hygromycin B; cell seeding medium: Ham’s F-12K + 10% FBS; assay buffer: 1 × HBSS + 20 mM HEPES + 0.1%BSA + 500 uM IBMX.
The Flp-In-CHO-SSTR 4 stable pool cell line was cultured in a complete medium at 37° C., 5% CO2 until a confluency of 70% to 90%.
After TrypLE digestion, the cells were resuspended in the seeding medium and seeded in a 384-well cell culture plate (384 PE culture plate), with 7,000 cells per well, and were cultured overnight at 37° C., 5% CO2.
The cell culture plate was taken out, inverted at 200 g at room temperature for 5 s to remove the medium, then quickly filled with 15 µl of an experimental buffer to each experimental well, and centrifuged at 200 g at room temperature for 5 s.
2.5 µl of the 8x compound working solution diluted in step 3 was added to corresponding test wells, which were centrifuged at 200 g for 5 s at room temperature, and incubated at 37° C. for 10 min.
A 4 uM Forskolin working solution (8x) was prepared.
The cell plate was taken out and equilibrated to room temperature, then filled with 2.5 µl of the 8x Forskolin working solution prepared in step 6 to corresponding test wells, followed by RT at 200 g for 5 s, and left to stand at 37° C. for 30 min.
A Eu-cAMP tracer and Uliaght-anti-cAMP were freeze-thawed, the Eu-cAMP tracer was diluted 50-fold with a detection buffer, and the Uliaght-anti-cAMP was dilutd 150-fold.
10 µl of the Eu-cAMP tracer was added to all experimental wells, then 10 µl of the detection buffer was added to NC wells, and 10 µl of the Uliaght-anti-cAMP was added to the remaining experimental wells.
The reaction plate was centrifuged at 200 g for 30 s at room temperature, and after standing at 25° C. for 1 h, data was collected using Envision.
Compound EC50 was calculated using a GraphPad nonlinear fitting formula: […]
X: Compound concentration log value; Y: HTRF ratio

[2] = metabolic stability in pooled human liver microsomes; details: pooled human liver microsomes, pH 7.4
Experimental: (§1) Metabolic degradation of a test compound was analyzed using pooled human liver microsomes and male rat liver microsomes, respectively, at 37° C.
(§2) After pre-incubation at 37° C. for 5 min, NADPH (5 mM, 60 µL) was added to initiate a reaction. A fixed volume of the reaction mixture (30 µL) was sampled into the solution at fixed time points (0, 5, 15, 30, 60 min) to quench the reaction. After centrifugation (4000 rpm, 15 min), the supernatant (100 µL) was mixed with distilled water (100 µL) and then subjected to LC-MS/MS analysis to test the amount of the compound. A half-life was calculated using a first-order reaction kinetic equation (Ct = C0 × e^-ket, T½ = Ln2/ke).

[3] = metabolic stability in male rat liver microsomes; details: rat liver microsomes, pH 7.4
Experimental: as §1, §2

rat CFA pain model = assay: multi-dose oral pharmacodynamic study in rat CFA pain model (Von Frey PWT); type: in vivo
Experimental: The efficacy of Compound 1a and Compound 14 in the rat CFA pain model was evaluated using a mechanical allodynia method.
SD rats, 72 males, divided into 9 groups, were purchased from Beijing Vital River Laboratory Animal Technology Co., Ltd.
The experimental animals were adaptively reared for 3 to 7 days, and 8 of them were selected as a normal control group, and the other animals were injected with 50 µL of CFA in the center of the left hind paw for modeling. 24 hours after injection, the animals were tested for paw withdrawal threshold (PWT) basal values, and were divided into groups according to the basal values, which were solvent control group, indomethacin group, Compound 1a, 10 mpk group, Compound 1a, 30 mpk group, Compound 1a, 100 mpk group, Compound 14, 3 mpk group, Compound 14, 10 mpk group, and Compound 14, 30 mpk group, with 8 animals in each group. Subsequently, the animals were weighed and administered orally according to Table 6. All the animals were tested for paw withdrawal thresholds (PWT) using Von Frey 1, 2, and 4 hours after administration to further evaluate the efficacy of the compounds of the present invention.

human SSTR1 = biological target: T2, human SSTR1 (Homo sapiens, UniProt P30872); assay: biochemical; details: 25° C., 2 hours, Cheng-Prusoff; read-out: Binding Ki (nM) SSTR1
T2 construct: expressed in transfected cells; host or cells: CHO-K1 (membrane homogenates)
T2 sequence (P30872 whole entry): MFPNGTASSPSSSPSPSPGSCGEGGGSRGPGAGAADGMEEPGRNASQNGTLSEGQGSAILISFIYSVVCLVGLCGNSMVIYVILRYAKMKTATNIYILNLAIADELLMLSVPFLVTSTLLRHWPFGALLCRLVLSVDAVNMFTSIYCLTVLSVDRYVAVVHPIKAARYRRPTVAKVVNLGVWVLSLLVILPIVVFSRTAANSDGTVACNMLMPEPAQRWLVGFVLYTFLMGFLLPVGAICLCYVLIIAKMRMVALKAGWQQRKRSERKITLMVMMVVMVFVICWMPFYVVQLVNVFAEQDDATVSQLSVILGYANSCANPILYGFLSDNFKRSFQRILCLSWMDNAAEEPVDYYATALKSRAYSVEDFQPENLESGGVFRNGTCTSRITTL
Experimental: (§3) Cell membranes were then filtered and washed, and protein-bound radioactivity was measured with a suitable instrument. The Ki values of corresponding targets were calculated using a Cheng-Prusoff formula.

human SSTR2 = biological target: T3, human SSTR2 (Homo sapiens, UniProt P30874); assay: biochemical; details: 25° C., 2 hours, Cheng-Prusoff; read-out: Binding Ki (nM) SSTR2
T3 construct: expressed in transfected cells; host or cells: CHO-K1 (membrane homogenates)
T3 sequence (P30874 whole entry): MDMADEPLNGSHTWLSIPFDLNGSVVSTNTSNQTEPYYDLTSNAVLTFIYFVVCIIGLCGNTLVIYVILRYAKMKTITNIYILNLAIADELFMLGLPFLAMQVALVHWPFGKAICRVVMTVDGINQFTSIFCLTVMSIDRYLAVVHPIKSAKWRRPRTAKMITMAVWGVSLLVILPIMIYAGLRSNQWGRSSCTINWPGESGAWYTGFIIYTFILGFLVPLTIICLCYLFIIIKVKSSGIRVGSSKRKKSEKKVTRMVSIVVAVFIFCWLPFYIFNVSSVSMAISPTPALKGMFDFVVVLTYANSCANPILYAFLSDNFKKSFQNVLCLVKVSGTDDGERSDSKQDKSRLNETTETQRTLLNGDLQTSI
Experimental: as §3

human SSTR3 = biological target: T4, human SSTR3 (Homo sapiens, UniProt P32745); assay: biochemical; details: 25° C., 2 hours, Cheng-Prusoff; read-out: Binding Ki (nM) SSTR3
T4 construct: expressed in transfected cells; host or cells: CHO-K1 (membrane homogenates)
T4 sequence (P32745 whole entry): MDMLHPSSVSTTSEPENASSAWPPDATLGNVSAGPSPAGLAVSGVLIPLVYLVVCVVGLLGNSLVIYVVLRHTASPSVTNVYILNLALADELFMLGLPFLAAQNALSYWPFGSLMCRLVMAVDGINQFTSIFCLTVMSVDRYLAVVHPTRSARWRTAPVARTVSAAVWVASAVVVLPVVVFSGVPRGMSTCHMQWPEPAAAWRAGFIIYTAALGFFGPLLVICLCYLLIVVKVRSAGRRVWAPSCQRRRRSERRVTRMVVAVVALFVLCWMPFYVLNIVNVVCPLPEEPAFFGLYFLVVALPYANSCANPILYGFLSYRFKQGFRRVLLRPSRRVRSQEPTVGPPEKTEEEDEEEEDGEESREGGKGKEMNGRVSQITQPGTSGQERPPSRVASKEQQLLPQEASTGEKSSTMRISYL
Experimental: as §3

human SSTR5 = biological target: T5, human SSTR5 (Homo sapiens, UniProt P35346); assay: biochemical; details: 25° C., 2 hours, Cheng-Prusoff; read-out: Binding Ki (nM) SSTR5
T5 construct: expressed in transfected cells; host or cells: CHO-K1 (membrane homogenates)
T5 sequence (P35346 whole entry): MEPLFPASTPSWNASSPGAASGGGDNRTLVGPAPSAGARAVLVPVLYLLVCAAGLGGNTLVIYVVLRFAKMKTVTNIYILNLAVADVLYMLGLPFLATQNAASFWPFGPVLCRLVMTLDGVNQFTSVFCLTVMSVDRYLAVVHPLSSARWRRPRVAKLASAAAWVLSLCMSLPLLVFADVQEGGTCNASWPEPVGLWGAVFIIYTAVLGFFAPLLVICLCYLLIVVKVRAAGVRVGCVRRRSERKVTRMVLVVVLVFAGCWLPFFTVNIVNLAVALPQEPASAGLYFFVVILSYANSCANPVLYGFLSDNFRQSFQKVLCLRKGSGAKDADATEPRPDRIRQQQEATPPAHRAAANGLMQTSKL
Experimental: as §3

human SSTR4 [4] = biological target: T1, human SSTR4; assay: radioligand binding assay, [125I]Somatostatin-14, CHO-K1 membranes
Experimental: as §3

SMILES: CSc1cccc2c(C(C)(C)NC(=O)[C@H]3[C@@H]4CNC[C@@H]43)nn(C)c12 [Compound 14, (1R,5S,6R)-N-(2-(1-Methyl-7-(Methylthio)-1H-Indazol-3-yl)Prop-2-yl)-3-Azabicyclo[3.1.0]Hexane-6-Carboxamide]
- EC50 (human SSTR4 [1]): 0.057 nM
- half-life at 1 µM [2]: > 3.11 h
- half-life at 1 µM [3]: > 3.11 h
- Paw withdrawal threshold (PWT(g)) (average) 0 hours (rat CFA pain model; 3 mg/kg oral group): 3.118 g
- Paw withdrawal threshold (PWT(g)) (average) 1 hour (rat CFA pain model; 3 mg/kg oral): 3.535 g
- Paw withdrawal threshold (PWT(g)) (average) 2 hours (rat CFA pain model; 3 mg/kg oral): 5.369 g
- Paw withdrawal threshold (PWT(g)) (average) 4 hours (rat CFA pain model; 3 mg/kg oral): 5.335 g
- Paw withdrawal threshold (PWT(g)) (average) 0 hours (rat CFA pain model; 10 mg/kg oral group): 3.118 g
- Paw withdrawal threshold (PWT(g)) (average) 1 hour (rat CFA pain model; 10 mg/kg oral): 4.155 g
- Paw withdrawal threshold (PWT(g)) (average) 2 hours (rat CFA pain model; 10 mg/kg oral): 5.789 g
- Paw withdrawal threshold (PWT(g)) (average) 4 hours (rat CFA pain model; 10 mg/kg oral): 7.308 ** g
- Paw withdrawal threshold (PWT(g)) (average) 0 hours (rat CFA pain model; 30 mg/kg oral group): 3.079 g
- Paw withdrawal threshold (PWT(g)) (average) 1 hour (rat CFA pain model; 30 mg/kg oral): 4.051 g
- Paw withdrawal threshold (PWT(g)) (average) 2 hours (rat CFA pain model; 30 mg/kg oral): 5.683 g
- Paw withdrawal threshold (PWT(g)) (average) 4 hours (rat CFA pain model; 30 mg/kg oral): 8.213 **** g
- inhibition of CFA-induced mechanical hyperalgesia (in words) (rat CFA pain model; oral 3, 10, 30 mg/kg, 4 hours after administration): dose-dependently inhibit
- onset dose (rat CFA pain model; oral, inhibition of CFA-induced mechanical hyperalgesia): 10 mg/kg
- Ki (human SSTR1): 799 nM
- Ki (human SSTR2): > 5310 nM
- Ki (human SSTR3): > 3420 nM
- Ki (human SSTR5): > 5650 nM
- Ki (human SSTR4 [4]): 0.51 nM
- SSTR4 /SSTR 1 (human SSTR4 [4]; ratio of binding Ki values, selectivity): 879.5
